Measured values published in patent publication US20240424053A1, “METHODS AND COMPOSITIONS FOR PROVIDING MYOCARDIAL PROTECTION AND TREATING MYOCARDIAL STRESS AND FIBROSIS” (Tufts Medical Center, Inc., priority 2021, published 2024).
Where a SMILES comes first, the peptide text is derived from it. The star is where a group is joined. Palmitoyl = CCCCCCCCCCCCCCCC(=O)*

Assays:
[1] = biological target: T1, PAR1 (Homo sapiens, UniProt P25116); assay: TRIP-PCI phase 2 study in patients with CAD/ACS undergoing cardiac catheterization; type: in vivo; settings: 9 patients with heart failure, EFs 30-53%
T1 construct: delivered intravenously in 100 patients with coronary artery disease (CAD) and acute coronary syndrome (ACS) undergoing cardiac catheterization; endogenous in cells; host or cells: patients of the TRIP-PCI trial (platelets ex vivo; whole body in vivo)
T1 sequence (P25116 22-425): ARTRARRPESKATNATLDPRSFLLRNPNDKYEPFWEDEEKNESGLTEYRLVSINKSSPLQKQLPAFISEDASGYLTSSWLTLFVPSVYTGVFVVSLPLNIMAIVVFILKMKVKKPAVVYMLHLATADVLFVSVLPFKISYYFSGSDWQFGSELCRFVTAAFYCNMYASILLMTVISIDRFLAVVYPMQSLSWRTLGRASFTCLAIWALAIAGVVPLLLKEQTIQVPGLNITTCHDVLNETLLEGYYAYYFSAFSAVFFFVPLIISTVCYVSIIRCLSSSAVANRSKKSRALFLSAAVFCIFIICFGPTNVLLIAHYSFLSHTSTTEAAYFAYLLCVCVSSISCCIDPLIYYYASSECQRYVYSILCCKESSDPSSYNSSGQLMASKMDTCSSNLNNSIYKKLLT
Method: TRIP-PCI was a multicenter, randomized, double-blind placebo-controlled phase 2 study that examined the safety, tolerability, and efficacy of PZ-128 at two dose levels (0.3 and 0.5 mg/kg, versus placebo, 1:1:1), delivered intravenously in 100 patients with coronary artery disease (CAD) and acute coronary syndrome (ACS) undergoing cardiac catheterization (Kuliopulos et al., Arterioscler. Thromb. Vasc. Biol 40(12):2990-3003, 2020). PAR1 inhibitors are intended to suppress thrombin-induced platelet activation to reduce damage during percutaneous coronary intervention (PCI) and ACS, potentially reducing the risk of myocardial infarction, stroke, and serious adverse events (Mackman et al., Nat. Rev. Drug Discov. 19(5):333-352, 2020). PZ-128 clinical trial participants received a single 2-h intravenous infusion of PZ-128 or placebo started just prior to catheterization along with standard antiplatelet therapy. […] The majority of events occurred within the first 24 h, with a nonsignificant decrease in hazard ratio (HR=0.81) of a MACE/myonecrosis event in the PZ-128 treated groups versus placebo. […]

[2] = biological target: T1, PAR1; settings: cited from earlier work
[3] = tested on: PAR1; settings: cited from earlier work
[4] = biological target: T1, PAR1; assay: NT-proBNP plasma levels in heart failure subset of TRIP-PCI; type: in vivo; settings: 24 hours after single dose (0.3 or 0.5 mg/kg combined), HF patients n=5, P=0.02
Method: Data was analyzed by 2-sided paired T-tests. Normal levels of NT-proBNP ≤125 pg/mL.
The TRIP-PCI (Thrombin Receptor Inhibitory Pepducin in PCI) Phase 2 trial (Kuliopulos et al., Arterioscler. Thromb. Vasc. Biol. 40(12):2990-3003, 2020), which enrolled a subset of patients with HF, was conducted to assess the safety, target engagement, and efficacy of PZ-128 in patients undergoing cardiac catheterization with intent to perform percutaneous coronary intervention (PCI). As explained above, in this randomized, double-blind, placebo-controlled, phase 2 trial, 100 patients were randomly assigned (2:1) to receive PZ-128 (0.3 mg/kg or 0.5 mg/kg), or placebo in a two-hour infusion initiated just prior to the start of cardiac catheterization. […]
In the BNP multinational study of 1568 patients presenting with dyspnea to the emergency department, BNP and NT-proBNP were the single most accurate predictors of diagnosis and severity of ADHF, and are used as a well-validated surrogate clinical efficacy endpoint in human trials (Ibrahim et al., Circ. Res. 123(5):614-629, 2018; Ibrahim et al., Circ. Heart Fail. 9(9), 2016). NT-proBNP levels were measured at baseline and 24 hours after the PZ-128 or placebo infusion was initiated and the cardiac catheterization procedure completed in the subset of patients with heart failure. […]

CCCCCCCCCCCCCCCC(=O)N[C@@H](CCCCN)C(=O)N[C@@H](CCCCN)C(=O)N[C@@H](CO)C(=O)N[C@@H](CCCNC(=N)N)C(=O)N[C@@H](C)C(=O)N[C@@H](CC(C)C)C(=O)N[C@@H](Cc1ccccc1)C(N)=O [PZ-128, Palmitate-KKSRALF-NH2] (Palmitoyl-KKSRALF-NH2)
tolerability in heart failure patients [1]: tolerated well | PAR1 aggregation response recovered ([2]; at 14 days post-dose): 50% | time at which inhibition of SFLLRN-induced platelet aggregation could be detected ([2]; post-dose): ≤ 1 h | time of peak inhibition of SFLLRN-induced platelet aggregation ([2]; post-dose): 24 h | mode of action at PAR1 [3]: full PAR1 antagonists | change in NT-proBNP levels [4]: significant mean drop
